Target: T1, AMPA receptor (human GluR1 flip/stargazin expressed in CHO-K1 cells) (Homo sapiens, UniProt P42261)
T1 construct: expressed in transfected cells; host or cells: CHO-K1
Experiment: AMPA receptor function enhancing activity using calcium influx as index
Format: cell-based
Settings: change in fluorescence level in 3 min, 100% = 3 mM glutamic acid + 300 μM cyclothiazide, 0% = 3 mM glutamic acid only
Text: Human GluR1 flip cDNA was amplified by PCR using forward primer […] (SEQ ID NO: 1) and reverse primer […] (SEQ ID NO: 2) artificially synthesized using human brain-derived cDNA (BD Bio science) as a template. The amplified product was digested with restriction enzymes EcoRI, NotI (TAKARA SHUZO CO. LTD.), and incorporated into the same site of pcDNA3.1(+) (Invitrogen) to construct pcDNA3.1(+)/human GluR1 flip gene. Human stargazin cDNA was amplified by PCR using forward primer […] (SEQ ID NO: 3) and reverse primer. […] (SEQ ID NO: 4) artificially synthesized using human hippocampus cDNA as a template. The amplified product was digested with restriction enzymes XhoI, BamHI (TAKARA SHUZO CO. LTD.), and incorporated into the same site of pcDNA3.1(−) (Invitrogen) to construct pcDNA3.1 Zeo(−)/human stargazin gene.
(2) Construction of GluR1 Flip/Stargazin Expressing Cell
CHO-K1 cells passaged in a culture medium (Ham's F12 medium (Invitrogen) added with 10% inactivated fetal bovine serum (Morgate) and penicillin, streptomycin (Invitrogen)) were detached with 0.05% trypsin, 0.53 mM EDTA (Invitrogen) diluted with D-PBS(−). The detached cells were suspended in a culture medium, and recovered by a centrifugation operation at 1,000 rpm. The recovered cells were suspended again in D-PBS(−), and added to a 0.4 cm electroporation cuvette (BioRad). pcDNA3.1(+)/human GluR1 flip gene (5 μg) and pcDNA3.1 Zeo(−)/human stargazin gene (15 μg) were added, and the mixture was introduced into CHO-K1 cells using Gene Pulser II (BioRad) under the conditions of 950 μFd, […]. The introduced cells were cultured overnight in a culture medium and, the next day, plated in a 96 well plate at 250 cells/well using a selection medium (culture medium added with Zeocin (Invitrogen) to 250 μg/mL). Clones showing drug resistance were selected, and GluR1 flip/stargazin expressing clones were selected by an assay method using calcium influx as an index as shown below.
(3) Measurement Method of AMPA Receptor Function Enhancing Activity of Compound Using Calcium Influx as Index
CHO-K1/GluR1 flip/stargazin expressing cells were plated on a 384 well black transparent bottom plate (FMAT4307723) at 0.5×10^4 cells/well, and cultured in a 37° C., CO2 incubator (SANYO Electric Co., Ltd.) for 2 days. The medium in the cell plate was removed, and a calcium indicator (Calcium 4 Assay Kit, Molecular. Devices) containing 1.25 mM probenecid (Invitrogen) was added at 25 μL/well and the well was left standing in 37° C., CO2 incubator for 1 hr. The cell plate was set in FLITRtetra (Molecular Devices), a mixture (12.5 μL) of 9 mM glutamic acid diluted with assay buffer B (HBSS (Invitrogen), 0.1% BSA, 10 mM HEPES) and a test compound was added, and the amount of change in fluorescence level in 3 min was measured. In the definition here, the amount of change in fluorescence level of well added with glutamic acid at final concentration 3 mM and 300 μM cyclothiazide (TOCRIS) is 100%, the amount of change in fluorescence level of well added only with glutamic acid at final concentration 3 mM is 0%, and the compound activity was calculated according to the following formula. activity (%)=(X−C)/(T−C)×100 T: amount of change in fluorescence level of well added with glutamic acid at final concentration 3 mM and 300 μM cyclothiazide C: amount of change in fluorescence level of well added only with glutamic acid at final concentration 3 mM X: amount of change in fluorescence level of well added with to test compound

T1 sequence (P42261 19-906 isoform P42261-2 limits assumed): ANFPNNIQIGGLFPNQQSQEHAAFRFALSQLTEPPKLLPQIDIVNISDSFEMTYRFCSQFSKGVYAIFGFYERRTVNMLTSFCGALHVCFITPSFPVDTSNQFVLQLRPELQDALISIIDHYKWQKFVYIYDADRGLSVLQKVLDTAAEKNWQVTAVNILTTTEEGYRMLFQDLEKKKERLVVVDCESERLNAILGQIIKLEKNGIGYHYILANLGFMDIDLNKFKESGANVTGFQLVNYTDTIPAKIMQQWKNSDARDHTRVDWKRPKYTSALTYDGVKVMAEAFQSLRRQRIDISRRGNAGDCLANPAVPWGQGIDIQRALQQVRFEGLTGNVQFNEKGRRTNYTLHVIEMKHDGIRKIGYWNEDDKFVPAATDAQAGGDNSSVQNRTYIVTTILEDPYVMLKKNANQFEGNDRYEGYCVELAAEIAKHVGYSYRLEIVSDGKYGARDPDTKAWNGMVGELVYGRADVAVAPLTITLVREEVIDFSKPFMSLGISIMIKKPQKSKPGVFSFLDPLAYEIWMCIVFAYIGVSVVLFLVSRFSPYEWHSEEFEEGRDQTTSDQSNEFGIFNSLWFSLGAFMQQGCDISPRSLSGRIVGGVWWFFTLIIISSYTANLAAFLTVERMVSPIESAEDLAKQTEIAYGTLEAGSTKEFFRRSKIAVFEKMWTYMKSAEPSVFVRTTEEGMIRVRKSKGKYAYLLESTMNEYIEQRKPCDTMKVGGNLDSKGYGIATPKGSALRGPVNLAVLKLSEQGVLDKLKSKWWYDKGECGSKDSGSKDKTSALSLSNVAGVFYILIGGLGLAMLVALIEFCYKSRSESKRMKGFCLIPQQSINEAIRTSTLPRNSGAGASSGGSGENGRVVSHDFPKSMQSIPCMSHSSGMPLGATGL
T1 sequence (Q9Y698 whole entry partner): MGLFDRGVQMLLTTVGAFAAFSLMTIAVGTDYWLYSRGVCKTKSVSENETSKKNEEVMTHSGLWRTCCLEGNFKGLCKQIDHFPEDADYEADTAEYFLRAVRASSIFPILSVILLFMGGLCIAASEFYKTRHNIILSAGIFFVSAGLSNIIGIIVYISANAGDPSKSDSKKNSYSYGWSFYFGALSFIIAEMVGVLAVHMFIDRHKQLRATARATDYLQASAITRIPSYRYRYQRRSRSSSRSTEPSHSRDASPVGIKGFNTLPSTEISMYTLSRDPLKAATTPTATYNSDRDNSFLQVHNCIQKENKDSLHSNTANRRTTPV

Row | SMILES | activity (%)
1 | CCS(=O)(=O)N[C@H]1CCN(C(C)=O)C[C@@H]1COc1ccc(C(C)C)cc1 (single isomer, unassigned) [Example 94, trans-N-[1-acetyl-3-{[4-(1-methylethyl)phenoxy]methyl}piperidin-4-yl]ethanesulfonamide] | 70
2 | CCS(=O)(=O)N[C@H]1CCOC[C@@H]1COc1ccc(OC(F)F)cc1 (single isomer, unassigned) [Example 124, trans-N-[3-{[4-(difluoromethoxy)phenoxy]methyl}tetrahydro-2H-pyran-4-yl]ethanesulfonamide] | 81
3 | CS(=O)(=O)N[C@@H]1CCOC[C@H]1COc1ccc(-c2ncc(Cl)cc2F)cc1 (single isomer, unassigned) [Example 382, N-[(3S,4R)-3-{[4-(5-chloro-3-fluoropyridin-2-yl)phenoxy]methyl}tetrahydro-2H-pyran-4-yl]methanesulfonamide or N-[(3R,4S)-3-{[4-(5-chloro-3-fluoropyridin-2-yl)phenoxy]methyl}tetrahydro-2H-pyran-4-yl]methanesulfonamide] | 59
4 | CS(=O)(=O)N[C@H]1COCC[C@@H]1COc1ccc(-c2ccc(Cl)cn2)cc1 [Example 205, N-[(3R,4S)-4-{[4-(5-chloropyridin-2-yl)phenoxy]methyl}tetrahydro-2H-pyran-3-yl]methanesulfonamide] | 65
5 | CS(=O)(=O)N[C@H]1COCC[C@@H]1COc1ccc(-n2cc(Cl)cn2)cc1 [Example 206, N-[(3R,4S)-4-{[4-(4-chloro-1H-pyrazol-1-yl)phenoxy]methyl}tetrahydro-2H-pyran-3-yl]methanesulfonamide] | 74
6 | CS(=O)(=O)N[C@H]1COCC[C@@H]1COc1ccc(-n2cc(Cl)cn2)cc1F [Example 207, N-[(3R,4S)-4-{[4-(4-chloro-1H-pyrazol-1-yl)-2-fluorophenoxy]methyl}tetrahydro-2H-pyran-3-yl]methanesulfonamide] | 74

The remaining lines, values ahead:

Row | activity (%) | SMILES
7 | 88 | CCS(=O)(=O)N[C@H]1COCC[C@@H]1COc1ccc(C(C)C)cc1 (single isomer, unassigned) [Example 110, trans-N-[4-{[4-(1-methylethyl)phenoxy]methyl}tetrahydro-2H-pyran-3-yl]ethanesulfonamide]
8 | 92 | CS(=O)(=O)N[C@@H]1CCOC[C@H]1COc1ccc(-c2ccc(Cl)cn2)cc1F (single isomer, unassigned) [Example 266, N-[(3S,4R)-3-{[4-(5-chloropyridin-2-yl)-2-fluorophenoxy]methyl}tetrahydro-2H-pyran-4-yl]methanesulfonamide or N-[(3R,4S)-3-{[4-(5-chloropyridin-2-yl)-2-fluorophenoxy]methyl}tetrahydro-2H-pyran-4-yl]methanesulfonamide]
9 | 99 | CCS(=O)(=O)N[C@H]1CCOC[C@@H]1COc1ccc(-c2ccc(F)cn2)c(F)c1 (single isomer, unassigned) [Example 313, N-[(3R,4S)-3-{[3-fluoro-4-(5-fluoropyridin-2-yl)phenoxy]methyl}tetrahydro-2H-pyran-4-yl]ethanesulfonamide or N-[(3S,4R)-3-{[3-fluoro-4-(5-fluoropyridin-2-yl)phenoxy]methyl}tetrahydro-2H-pyran-4-yl]ethanesulfonamide]
10 | 68 | CS(=O)(=O)N[C@H]1CCOC[C@@H]1COc1ccc(-c2ccc(F)cn2)c(F)c1 (single isomer, unassigned) [Example 477, N-[(3R,4S)-3-{[3-fluoro-4-(5-fluoropyridin-2-yl)phenoxy]methyl}tetrahydro-2H-pyran-4-yl]methanesulfonamide or N-[(3S,4R)-3-{[3-fluoro-4-(5-fluoropyridin-2-yl)phenoxy]methyl}tetrahydro-2H-pyran-4-yl]methanesulfonamide]
11 | 81 | CCS(=O)(=O)N[C@H]1CCCC[C@@H]1COc1ccc(C(C)C)cc1 [Example 13, N-[(1S,2S)-2-{[4-(1-methylethyl)phenoxy]methyl}cyclohexyl]ethanesulfonamide]
